Results taken from patent US20210009542A1 (Calico Life Sciences LLC, priority 2018, published 2021).
Like-named read-outs stand apart in the source and are kept apart here.

How the values were obtained:
[1] = biological target: T1, His tagged PTPN2 (TC45) protein (Homo sapiens, UniProt P17706); assay: Mobility shift assay (MSA) for potency of PTPN2 inhibitors; type: biochemical; conditions: read-out: PTPN2 MSA IC50
T1 construct: made in house
T1 sequence (P17706 with tags, fused parts or gaps isoform P17706-2): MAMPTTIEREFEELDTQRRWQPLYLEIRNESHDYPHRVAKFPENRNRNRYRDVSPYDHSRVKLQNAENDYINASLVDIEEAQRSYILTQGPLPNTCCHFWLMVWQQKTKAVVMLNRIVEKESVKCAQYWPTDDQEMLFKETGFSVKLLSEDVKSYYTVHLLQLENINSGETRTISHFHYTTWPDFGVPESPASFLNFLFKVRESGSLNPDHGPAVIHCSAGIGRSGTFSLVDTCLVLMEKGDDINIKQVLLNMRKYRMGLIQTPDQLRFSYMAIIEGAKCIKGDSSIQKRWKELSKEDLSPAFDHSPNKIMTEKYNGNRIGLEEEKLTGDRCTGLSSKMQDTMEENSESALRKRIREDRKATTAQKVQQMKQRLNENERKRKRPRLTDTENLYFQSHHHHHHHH
In short: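 His-tagged PTPN2 TC45 (0.5 nM) was preincubated with compound (12-point, 1:3) for 10 min at room temperature in 50 mM HEPES pH 7.5, 1 mM EGTA, 10 mM EDTA, 0.01% Tween 20, 2 mM DTT. OG488-labelled phospho-insulin-receptor peptide ([…]) was then added for 10 min. After quenching, dephosphorylation was measured by microfluidic mobility shift and IC50 derived from % inhibition.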

[2] = test system: Pan T cells isolated from C57BL6 splenocytes; assay: T cell function assay (IFNγ and TNFα in supernatants, MSD V-plex); type: cell-based, mouse; conditions: 30 μM compound, 3 days, supernatant
Procedure: (§1) Pan T cells were isolated from C57BL6 splenocytes using a MACS Pan T cell isolation kit II (Miltenyi Biotec, Auburn, Calif.) according to the manufacturer's instructions. Isolated T cells (200,000 cells/well in a 96 well flat-bottom plate) were cultured in RPMI 1640 supplemented with 10% FBS, […] 2-mercatoethanol, 100 U/mL penicillin, and 100 μg/mL streptomycin, and incubated with the indicated concentration of compound or DMSO in duplicates. After 1 hour, mouse T cell activator CD3/CD28 Dynabeads (ThermoFisher Scientific, Waltham, Mass.) were added at a 1:5 beads to cells ratio to stimulate the T cells for 2 or 3 days as outlined below. T cells with or without compound were incubated in the absence of T cell activator beads (media only) as control.
After 3 days of stimulation, supernatants were collected and IFNγ and TNFα in supernatants were assessed using an MSD V-plex assay (Meso Scale Discovery, Rockville, Md.).

[3] = test system: Pan T cells isolated from C57BL6 splenocytes; assay: T cell activation assay (flow cytometry, CD25/CD69 on CD8 T cells); type: cell-based, mouse; conditions: for % CD25 within CD8+ / % CD69 within CD8+ / CD25 MFI / CD69 MFI: 30 μM compound, 2 days; for T cell activation and T cell function: with TCR stimulation
Procedure: as §1
After 2 days of stimulation, activation status of T cells was assessed by flow cytometry. T cells were first subjected to Zombie Violet™ Fixable Viability dye (BioLegend, San Diego, Calif.) for dead cell exclusion, washed and then stained with BUV805 labeled anti-CD8, APC-R700 labeled anti-CD25 (both from BD Biosciences, San Jose, Calif.) and PE labeled anti-CD69 (BioLegend, San Diego, Calif.) antibodies. After staining, cells were fixed with 2% paraformaldehyde and acquired on a BD LSRFortessa™ X-20 flow cytometer (BD Biosciences, San Jose, Calif.) using BD FACSDiva™ software. Data was analyzed using FlowJo V10 (Flow Jo LLC, Ashland, Oreg.). Dead cells were excluded and frequencies of activated CD8 T cells was reported as the frequency of CD25+ or CD69+ cells within the CD8+ population. The expression level of CD25 and CD69 indicates the activation status of cells on a per cell basis and was evaluated by the mean fluorescence intensities (MFI) of CD25 and CD69.

[4] = test system: B16F10 mouse melanoma cells; assay: B16F10 IFNγ-induced cellular growth inhibition assay; type: cell-based; conditions: Mus musculus, B16-F10, 33 μM compound
In short: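 B16F10 cells (500/well, DMEM + 10% FBS) dosed in triplicate at 100 μM to 0.001 μM (0.1% DMSO) with or without 0.5 ng/mL final mouse IFNγ. Confluence imaged every 6 h for 5 days; % growth inhibition calculated versus DMSO/with-IFNγ control once DMSO/no-IFNγ wells exceeded 95% confluence.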

[5] = biological target: T2, His tagged full-length PTP1B protein (Homo sapiens, UniProt P18031); assay: Mobility shift assay (MSA) for potency of PTP1B inhibitors; type: biochemical
T2 construct: made in house
T2 sequence (P18031 with tags, fused parts or gaps): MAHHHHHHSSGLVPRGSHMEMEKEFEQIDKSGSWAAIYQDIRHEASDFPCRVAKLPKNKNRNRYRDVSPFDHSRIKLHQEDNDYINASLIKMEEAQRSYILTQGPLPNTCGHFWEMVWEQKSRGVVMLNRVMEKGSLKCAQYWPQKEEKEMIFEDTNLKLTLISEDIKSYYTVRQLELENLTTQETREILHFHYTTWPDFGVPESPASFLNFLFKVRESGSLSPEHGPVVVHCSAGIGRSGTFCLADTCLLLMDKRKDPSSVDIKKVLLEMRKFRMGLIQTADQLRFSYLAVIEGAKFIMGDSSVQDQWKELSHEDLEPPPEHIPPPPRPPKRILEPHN
Procedure: The enzymatic assay used to determine activity is a mobility shift assay using a LabChip EZ Reader by Caliper Life Sciences. The enzymatic reaction was carried out in assay buffer (50 mM HEPES pH 7.5, 1 mM EGTA, 10 mM EDTA, 0.01% Tween® 20, and 2 mM DTT). […] The enzyme (at 0.5 nM) was incubated with compound for 10 minutes at room temperature. […] The % inhibition was then used to calculate the IC50 values.

[6] = anti-CD3/anti-CD28 Dynabeads (1:5 beads:cells)
[7] = +0.5 ng/mL IFNγ, relative to DMSO control, read-out: % B16F10 growth inhibition (+0.5 ng/mL IFNγ) @ 33 μM
[8] = no IFNγ, read-out: % B16F10 growth inhibition (no IFNγ) @ 33 μM

Compound | IC50 [1] | IFNγ [2, 6] | TNFα [2, 6] | IFNγ ([2]; no TCR stimulation) | TNFα ([2]; no TCR stimulation) | % CD25 within CD8+ [3, 6] | % CD69 within CD8+ [3, 6] | CD25 MFI [3, 6] | CD69 MFI [3, 6] | % CD25 within CD8+ ([3]; no TCR stimulation) | % CD69 within CD8+ ([3]; no TCR stimulation) | CD25 MFI ([3]; no TCR stimulation) | CD69 MFI ([3]; no TCR stimulation) | T cell activation and T cell function [3] | inhibition at 33 µM [4, 7] | inhibition at 33 µM [4, 8] | IC50 [5]
O=C1CN(c2c(O)cc3ccc(OC(F)F)cc3c2F)S(=O)(=O)N1 [Compound 260, 5-[7-(difluoromethoxy)-1-fluoro-3-hydroxynaphthalen-2-yl]-1λ^6,2,5-thiadiazolidine-1,1,3-trione] | 1 to 10 nM | 752 ng/mL | 207 ng/mL | 3.8 ng/mL | 2.1 ng/mL | 39.60% | 61.65% | 1085 | 464.5 | 0.29% | 0.17% | 28.3 | 10.2 | increased both T cell activation and T cell function | 25 to 59% | < 25% | 
O=C1CN(c2c(O)cc3ccc(C4=CCN(S(=O)(=O)C5CC5)C4)cc3c2F)S(=O)(=O)N1 [Compound 113, 5-{7-[1-(cyclopropanesulfonyl)-2,5-dihydro-1H-pyrrol-3-yl]-1-fluoro-3-hydroxynaphthalen-2-yl}-1λ^6,2,5-thiadiazolidine-1,1,3-trione] | < 1 nM | 356 ng/mL | 208 ng/mL | 1.2 ng/mL | 1.5 ng/mL | 44.55% | 73.95% | 1265 | 1891 | 0.49% | 0.24% | 51.7 | 28.8 | increased both T cell activation and T cell function | > 90% | < 25% | 
CN(C)CCNc1ccc2cc(O)c(N3CC(=O)NS3(=O)=O)c(F)c2c1 [Compound 122, 5-(7-{[2-(dimethylamino)ethyl]amino}-1-fluoro-3-hydroxynaphthalen-2-yl)-1λ^6,2,5-thiadiazolidine-1,1,3-trione] | 10 to 100 nM |  |  |  |  |  |  |  |  |  |  |  |  |  | 60 to 90% | < 25% | 10 to 100 nM
NC12CC(CCOc3ccc4cc(O)c(N5CC(=O)NS5(=O)=O)c(F)c4c3)(C1)C2 [Compound 121, 5-{7-[2-(3-aminobicyclo[1.1.1]pentan-1-yl)ethoxy]-1-fluoro-3-hydroxynaphthalen-2-yl}-1λ^6,2,5-thiadiazolidine-1,1,3-trione] | 1 to 10 nM |  |  |  |  |  |  |  |  |  |  |  |  |  | 60 to 90% | < 25% | 1 to 10 nM
